Patent publication US20150203471A1, “METHODS FOR IMPROVING CHICKEN PRODUCTION” (ELI LILLY AND COMPANY, priority 2012, published 2015)
Where a name gives a salt, the structure may show the parent alone. Read-outs that look alike come from different tables or passages of the source.

How the values were obtained:
male broilers [1] = experiment: Study 1: growth performance and carcass responses of male broilers, compounds in feed vs positive and negative controls; format: in vivo, chicken; settings: 14 days; for change in vivo at 15 ppm, 15 µg/mL: Gallus gallus, feed or water, 336 h; for change in vivo at 15 ppm, 15 µg/mL / Ave daily live wt gain % inc. / Breast wt % inc. / Feed intake % inc. / Gain effic % inc. / Leg wt % inc. / Fat Pad wt % dec.: 15 ppm in feed ad libitum; for change in vivo at 15 ppm, 15 µg/mL / Ave daily live wt gain % inc. / Breast wt % inc. / Feed intake % inc. / Gain effic % inc. / Leg wt % inc.: percent change from negative control; for Fat Pad wt % dec.: percent decrease from negative control; for improvement versus negative control and positive control (in words): positive control = Compound 1
Excerpt: An objective of this study is to evaluate growth performance and carcass responses of male broilers by comparing non-zero dosages of the above compounds versus a positive control (Compound 1) and negative controls. Table 1 sets out the specific treatment groups:
The route of administration is oral, with the compounds mixed in feed, and provided Ad libitum. The age of the chickens of Day 1 of the study is 35 days old. Body weights are taken on the following days: • 1) Study Day 1 (pen weight) • 2) Study Day 14 (individual animal weights) • 3) Study Day 15 (individual weights on selected animals) • 4) Study Day 16 (blocks 1-5) • 5) Study Day 17 (blocks 6-10).
(§1) Following collection of final weights, the following processing data is collected (hot weights) on individual animals: • 1) Live weight • 2) Hot carcass weight • 3) Fat pad weight • 4) Hot breast muscle weight • 5) Hot bone in leg weight

male broilers [2] = experiment: Study 2: growth performance and carcass responses of male broilers, compounds in feed in the last 14 days prior to slaughter; format: in vivo, chicken
Method: Compounds 2, 5, and 9 are used in this study. The study is conducted to evaluate growth performance and carcass responses of male broilers by comparing non-zero dosages of the compounds, versus negative control, administered in the last 14 days prior to slaughter. Table 3 sets out the specific treatment groups.
The route of administration is oral, with the compounds mixed in feed, and provided Ad libitum. The age of the chickens of Day 1 of the study is 35 days old. Body weights are taken on the following days: • 1) Study Day 1 (pen weight) • 2) Study Day 15 (individual animal weights) • 3) Study Day 16 (individual weights on selected animals in animals in blocks 1-4) • 4) Study Day 17 (individual weights on selected animals in animals in blocks 5-8)
as §1

[3] = male broilers 35 days old at Day 1, * in cell = not significant vs negative control, read-out: ADG % inc.
[4] = male broilers, * in cell = not significant, read-out: Hot carcass wt % inc.
[5] = male broilers, * in cell = not significant

| Structure (SMILES) | change in vivo at 15 ppm, 15 µg/mL (male broilers [1]; [3]) [%] | change in vivo at 15 ppm, 15 µg/mL (male broilers [1]; [4]) [%] | Ave daily live wt gain % inc. (male broilers [1]; [5]) [%] | Breast wt % inc. (male broilers [1]; [5]) | Feed intake % inc. (male broilers [1]; [5]) | Gain effic % inc. (male broilers [1]; [5]) | Leg wt % inc. (male broilers [1]; [5]) | Fat Pad wt % dec. (male broilers [1]; [5]) | also measured |
| --- | --- | --- | --- | --- | --- | --- | --- | --- | --- |
| CC(C)(Cc1ccc(Oc2ccc(C(=O)O)cc2)cc1)NC[C@H](O)COc1cccc(O)c1 (stereo in doubt) [Compound 8, 4-[4-(2-{[2-hydroxy-3-(3-hydroxyphenoxy)propyl]amino}-2-methylpropyl)phenoxy]benzoic acid dihydrochloride] | -0.4 | 0.8 |  |  |  |  |  |  |  |
| CC(C)(Cc1ccc(Oc2ncccc2C#N)cc1)NC[C@H](O)COc1ccccc1-c1cccs1 [Compound 1, 2-[4-(2-{[(2S)-2-hydroxy-3-(2-thiophen-2-ylphenoxy)propyl]amino}-2-methylpropyl)phenoxy]pyridine-3-carbonitrile, reference compound] | 4.4 | 2.4 | 4.0 | 3.5* % | 2.7% | 1.6* % | 1.2* % | 9.8* % | growth performance parameters improved (in words) (male broilers [1]; 15 ppm in feed, vs negative control): improved ADG, feed intake, average daily live weight gain only |
| CC(C)(Cc1ccc(Oc2ccc(C(=O)N3CCOCC3)cn2)cc1)NC[C@H](O)COc1cccc2[nH]ncc12 [Compound 2, (2S)-1-{[1,1-dimethyl-2-(4-{[5-(morpholin-4-ylcarbonyl)pyridin-2-yl]oxy}phenyl)ethyl]amino}-3-(1H-indazol-4-yloxy)propan-2-ol] | 8.7 | 6.1 | 8.3 | 6.1% | 4.8% | 3.8% | 8.2% | 12.8* % | ADFI versus negative control group (male broilers [2]; 3.5 ppm in feed): significantly lower; F/G ratio (feed:gain efficiency) versus negative control group (male broilers [2]; 7 ppm in feed): significantly lower; G/F ratio (gain:feed efficiency) versus negative control group (male broilers [2]; 7 ppm in feed): significantly higher; hot bone-in leg weight versus negative control group (male broilers [2]; 7 ppm in feed): significantly higher; hot breast muscle weight versus negative control group (male broilers [2]; 7 ppm in feed): significantly higher; hot carcass weight versus negative control group (male broilers [2]; 7 ppm in feed): significantly higher; fat pad weight (in words) (male broilers [1]; 15 ppm in feed): reduce fat pad weight; feed intake (in words) (male broilers [1]; 15 ppm in feed): significant increase in feed intake; gain versus untreated control (in words) (male broilers [1]; 15 ppm in feed): significantly greater than untreated control; improvement versus negative control and positive control (in words) (male broilers [1]; 15 ppm in feed): significantly better improvement than both the negative control and the positive control |
| CC(C)(Cc1ccc(Oc2ccc(S(C)(=O)=O)cc2)cc1)NC[C@H](O)COc1cccc2[nH]c(=S)[nH]c12 [Compound 3, 4-({(2S)-3-[(1,1-dimethyl-2-{4-[4-(methylsulfonyl)phenoxy]phenyl}ethyl)amino]-2-hydroxypropyl}oxy)-1,3-dihydro-2H-benzimidazole-2-thione] | 1.6 | 2.7 |  |  |  |  |  |  |  |
| CC(C)(Cc1ccc(Oc2ncccc2C(N)=O)cc1)NC[C@H](O)COc1ccccc1-c1cc2ccccc2[nH]1 [Compound 4, 2-{4-[2-({(2S)-2-hydroxy-3-[2-(1H-indol-2-yl)phenoxy]propyl}amino)-2-methylpropyl]phenoxy}pyridine-3-carboxamide] | -1.6 | 0.3 |  |  |  |  |  |  |  |
| CC(C)(Cc1ccc(Oc2ccc(C(=O)N3CCOCC3)cn2)cc1)NC[C@H](O)COc1cccc2[nH]ccc12 [Compound 6, (2S)-1-{[1,1-dimethyl-2-(4-{[5-(morpholin-4-ylcarbonyl)pyridin-2-yl]oxy}phenyl)ethyl]amino}-3-(1H-indol-4-yloxy)propan-2-ol] | 3.9 | 3.8 |  |  |  |  |  |  |  |
| CC(C)(Cc1ccc(Oc2ccc(S(C)(=O)=O)cc2S(C)(=O)=O)cc1)NC[C@H](O)COc1cccc2[nH]c(C(N)=O)cc12 [Compound 7, 4-({(2S)-3-[(2-{4-[2,4-bis(methylsulfonyl)phenoxy]phenyl}-1,1-dimethylethyl)amino]-2-hydroxypropyl}oxy)-1H-indole-2-carboxamide] | 2 | 1.2 |  |  |  |  |  |  |  |
| CC(C)(Cc1ccc(Oc2ncccc2C(N)=O)cc1)NC[C@H](O)COc1cccc2[nH]ncc12 [Compound 9, 2-[4-(2-{[(2S)-2-hydroxy-3-(1H-indazol-4-yloxy)propyl]amino}-2-methylpropyl)phenoxy]pyridine-3-carboxamide] | 8.9 | 5 | 9.3 | 4.8% | 2.1* % | 6.7% | 7.9% | 17.8% | F/G ratio (feed:gain efficiency) versus negative control group (male broilers [2]; 3.5 ppm in feed): significantly lower; G/F ratio (gain:feed efficiency) versus negative control group (male broilers [2]; 3.5 ppm in feed): significantly higher; hot bone-in leg weight versus negative control group (male broilers [2]; 3.5 ppm in feed): significantly higher; hot breast muscle weight versus negative control group (male broilers [2]; 3.5 ppm in feed): significantly higher; hot carcass weight versus negative control group (male broilers [2]; 3.5 ppm in feed): significantly higher; ADFI versus negative control group (male broilers [2]; 7 ppm in feed): significantly higher; ADG versus negative control group (male broilers [2]; 7 ppm in feed): significantly higher; F/G ratio (feed:gain efficiency) versus negative control group (male broilers [2]; 7 ppm in feed): significantly lower; G/F ratio (gain:feed efficiency) versus negative control group (male broilers [2]; 7 ppm in feed): significantly higher; hot bone-in leg weight versus negative control group (male broilers [2]; 7 ppm in feed): significantly higher; hot breast muscle weight versus negative control group (male broilers [2]; 7 ppm in feed): significantly higher; hot carcass weight versus negative control group (male broilers [2]; 7 ppm in feed): significantly higher; fat pad weight (in words) (male broilers [1]; 15 ppm in feed): reduce fat pad weight; feed intake (in words) (male broilers [1]; 15 ppm in feed): significant increase in feed intake; gain versus untreated control (in words) (male broilers [1]; 15 ppm in feed): significantly greater than untreated control; significance of the fat pad weight difference (male broilers [1]; 15 ppm in feed): significant; improvement versus negative control and positive control (in words) (male broilers [1]; 15 ppm in feed): significantly better improvement than both the negative control and the positive control |
